Among the data in US20260124191A1, “HISTONE DEACETYLASE INHIBITOR AND USES THEREOF” (NANJING HONGSHUN PHARMACEUTICAL TECHNOLOGY CO., LTD, priority 2023, published 2026) are IC50 and Inhibition rate values, retold here.

SMILES strings stand for the structures.

One experiment deals with HDAC. Nature of the experiment: HDAC inhibitory activity assay (FRET). Type of experiment: biochemical. The conditions noted are these: for IC50: HDAC, FRET, read-out: Half-maximal inhibitory concentration (IC50 ± SD); for Inhibition rate: test concentration 100 nM, relative to DMSO control. How it is done: The HDAC inhibitory activity of the synthesized compounds was determined by fluorescence resonance energy transfer (FRET), and then compared with that of the positive control to screen out compounds with better activity. HDAC was obtained by purification or purchased directly.
The method was as follows.
An enzyme was added to reaction wells, a reaction buffer was added to control wells, a sample dissolved in DMSO was added to the reaction wells, and the wells were incubated using a contactless nanoflow sonic pipetting system (Ech-550; nanoflow). A fluorescent substrate was added to each reaction well and then rotated and shaken. The wells were incubated for 1-2 h at 30° C. under a sealed condition. A TMP26-containing chromogenic agent was added to terminate the reaction and produce fluorescence. The fluorescence intensity was detected using En Vision multi-label microplate detector (Perkin Elmer) (excitation light: 490 nm, emitted light: 520 nm). After the stabilization of color development, the endpoint value was read. The percentage (relative to the DMSO control group) inhibition rate was calculated using the software GraphPad Prism 4.

The subject of experiment [1] is human breast cancer cells MCF7. Nature of the experiment: In vitro anti-tumor activity, MTT method. Type of experiment: cell-based. The conditions noted are these: Homo sapiens, MCF7, 96 h, MCF-7, MTT, 96-hour treatment. Here is the method: (§1) The inhibitory effects of the compounds against human non-small cell lung cancer cell lines A549, NCI-H1650, human small cell lung cancer cell lines H446, human prostate cancer cells DU145, PC-3, LNCAP, human colon cancer cells lines HCT116, human breast cancer cells MDA-MB-231, and MCF7 tumor cell lines were determined using the MTT method.
(§2) The method was as follows. The cells in the exponential growth phase were collected to count living cells. The concentration of the cell suspension was adjusted using the corresponding medium of each group of cells. The cell suspension was added to the 96-well culture plate at 100 μL per cell, and the plate was placed in a 5% CO2 incubator at 37° C. and incubated for 24 h. Each test compound was dissolved in DMSO to prepare a stock solution with a corresponding concentration. Then, each stock solution was diluted 500-fold with the medium to prepare 4 replicate wells. 100 μL of the corresponding 500-fold solution was added to each well per cell line, with the final DMSO concentration of 0.1%. […] The half-maximal (relative to the DMSO control group) inhibition rate was calculated using the software GraphPad Prism 4.
(In general: Tetrazolium assays rely on reduction of a dye to a coloured formazan, in cell work by metabolically active cells.)

Experiment [2] relates to human non-small cell lung cancer cell line A549. The experiment in a line: In vitro anti-tumor activity, MTT method. To be noted: Homo sapiens, A549, 96 h, 96-hour treatment. Type of experiment: cell-based. Here is the method:
as §1, §2

Experiment [3] relates to human prostate cancer cells DU145. Nature of the experiment: In vitro anti-tumor activity, MTT method. Type of experiment: cell-based. The conditions noted are these: Homo sapiens, DU-145, 96 h, 96-hour treatment. Here is the method: as §1, §2
For experiment [4], the system named is human prostate cancer cells PC-3. The experiment in a line: In vitro anti-tumor activity, MTT method. Type of experiment: cell-based. The conditions noted are these: Homo sapiens, 96 h, PC-3, MTT, 96-hour treatment. Here is the method: as §1, §2

Consider `CCOc1ccccc1/C=C1\CC(=O)N(CCCCCCC(=O)NO)C1=O` [Example I-38, (E)-7-(3-(2-ethoxybenzal)-2,5-diketopyrrolidinyl)-N-hydroxyheptamide], for which the IC50 worked out at 16.7 ± 0.21 nM in the experiment on HDAC; 510 ± 70 nM in experiment [1]; 1780 ± 200 nM in experiment [2]; 340 ± 40 nM in experiment [3]; 890 ± 50 nM in experiment [4].

Regarding `O=C(CCCCCCN1C(=O)C/C(=C\c2ccccn2)C1=O)NO` [Example I-21, (E)-7-(3-(2-methylenepyridin)-2,5-diketopyrrolidinyl)-N-hydroxyheptamide], the Inhibition rate in the experiment with HDAC is 88.3% ± 1.1%. Moreover, the IC50 in experiment [1] turned out to be 1540 ± 90 nM; in experiment [2], 2250 ± 250 nM; in experiment [3] it was 670 ± 90 nM; in experiment [4], 990 ± 40 nM.

With `N#Cc1ccccc1/C=C1\CC(=O)N(CCCCCCC(=O)NO)C1=O` [Example I-20, (E)-7-(3-(2-cyanobenzal)-2,5-diketopyrrolidinyl)-N-hydroxyheptamide], the IC50 in the experiment with HDAC worked out at 40.1 ± 1.21 nM; in experiment [1], 820 ± 50 nM; in experiment [2], 2820 ± 390 nM; in experiment [3] it was 740 ± 100 nM; in experiment [4], 870 ± 100 nM.

In the case of `CN(C)c1ccc(/C=C2\CC(=O)N(CCCCCCC(=O)NO)C2=O)cc1` [Example I-16, (E)-7-(3-(4-dimethylaminobenzal)-2,5-diketopyrrolidinyl)-N-hydroxyheptamide], the Inhibition rate in the experiment with HDAC is recorded as 93.3% ± 1.0%. Moreover, the IC50 in experiment [1] turned out to be 1160 ± 120 nM; in experiment [2], 2240 ± 80 nM; in experiment [3], 920 ± 30 nM; in experiment [4] it was 1750 ± 120 nM.

For the compound `COc1ccc(/C=C2\CC(=O)N(CCCCCCC(=O)NO)C2=O)cc1` [Example I-33, (E)-7-(3-(4-methoxybenzal)-2,5-diketopyrrolidinyl)-N-hydroxyheptamide], the IC50 is 13 ± 0.02 nM in the experiment with HDAC; 1020 ± 110 nM in experiment [1]; 1520 ± 140 nM in experiment [2]; 500 ± 100 nM in experiment [3]; 890 ± 100 nM in experiment [4].

As to `COc1cc(/C=C2\CC(=O)N(CCCCCCC(=O)NO)C2=O)cc(OC)c1OC` [Example I-35, (E)-7-(3-(3,4,5-trimethoxybenzal)-2,5-diketopyrrolidinyl)-N-hydroxyheptamide], the Inhibition rate in the experiment with HDAC is 82.5% ± 3.5%. In addition, the IC50 turned out to be 1270 ± 130 nM in experiment [1], 3630 ± 650 nM in experiment [2], 1030 ± 140 nM in experiment [3] and 1710 ± 170 nM in experiment [4].

As for `COc1cc(Br)ccc1/C=C1\CC(=O)N(CCCCCCC(=O)NO)C1=O` [Example I-40, (E)-7-(3-(4-bromo-2-methoxybenzal)-2,5-diketopyrrolidinyl)-N-hydroxyheptamide], the IC50 stood at 5.5 ± 0.03 nM in the experiment on HDAC; 320 ± 20 nM in experiment [1]; 1490 ± 90 nM in experiment [2]; 250 ± 40 nM in experiment [3]; 670 ± 100 nM in experiment [4].

`O=C(CCCCCCN1C(=O)C/C(=C\c2ccccc2)C1=O)N[C@H]1CCCC[C@@H]1O` [Example I-13, 7-(3-((E)-benzal)-2,5-diketopyrrolidinyl)-N-((1S,2S)-2-hydroxycyclohexyl)heptamide] displayed an Inhibition rate in the experiment with HDAC of 0%. Moreover, the IC50 in experiment [1], in experiment [2], in experiment [3] and in experiment [4] was more than 20000 nM in each case.

For the compound `O=C(CCCCCCN1C(=O)C/C(=C\c2ccccc2O)C1=O)NO` [Example I-37, (E)-7-(3-(2-hydroxybenzal)-2,5-diketopyrrolidinyl)-N-hydroxyheptamide], in the experiment with HDAC, the Inhibition rate is recorded as 90.6% ± 0.9%. The IC50 was found to be 800 ± 150 nM in experiment [1], 4340 ± 690 nM in experiment [2], 1720 ± 120 nM in experiment [3] and 1930 ± 230 nM in experiment [4].

Regarding `Nc1cc(F)ccc1NC(=O)CCCCN1C(=O)C/C(=C\c2ccccc2)C1=O` [Example I-7, (E)-N-(2-amino-4-fluorophenyl)-5-(3-benzal-2,5-diketopyrrolidinyl)pentanamide], in the experiment with HDAC, the Inhibition rate is reported as 0%. The IC50 in experiment [1], in experiment [2], in experiment [3] and in experiment [4] was more than 20000 nM in each case.
